Assay results: patent US5126356A, “Piperidine compounds” (Adir et Compagnie, priority 1989, dated 1992)

Legend:
type L calcium channels = assay: Binding: displacement of [3H] D888 at the Ca2+ channel; conditions: read-out: K0.5 (50% of specifically fixed radioactivity displaced)
Beta adrenergic β = assay: Binding to neurotransmitter receptors: beta adrenergic ([3H] DHA); conditions: read-out: K0.5
beagle dogs = assay: Anti-ischaemic activity, Protocol 1: tight coronary stenosis in anaesthetised beagle dogs; type: in vivo, dog
Protocol: The studies are carried out on beagle dogs weighing from 9 to 12 kg which have been anaesthetised with pentobarbital sodium 30 mg/kg i.v., intubated and ventilated, and subjected to a thoracotomy at the 5th left intercostal space.
An electromagnetic ring connected to a Gould SP 2202 electromagnetic flow meter is placed around the circumflex branch of the left coronary artery, and an inflatable balloon is placed just downstream of that ring for the production of coronary stenoses under the control of the coronary output.
Piezoelectric crystals (5 MHz) connected to a Triton sonomicrometer are implanted in the subendocardium of the left ventricular wall, in an area that is to become ischaemic, for measuring local myocardial contractility; epicardial electrodes are placed in the same area for recording the epicardial electrocardiogram.
Myocardial ischaemia is induced by tight coronary stenosis that reduces coronary output by about 70%.
The same coronary stenosis, the effects of which are reversible and reproducible, is produced in the same animal for two periods of 10 minutes, separated by a recovery period of 45 minutes.
Treatments are administered intravenously 2 minutes after coronary stenosis:
injection of solvent after the first coronary stenosis, which serves as control,
injection of the test product after the second coronary stenosis.
Myocardial contractility is evaluated by the proportion of systolic shortening of the lengths of the segments between the piezoelectric crystals.
Hypokinesia in the ischaemic area is expressed as percentage variation relative to the contractility measured in the control period.
Modification of the epicardial ECG in the ischaemic area consists in raising the epicardial ST segment measured in millivolts (mV).

For `COc1ccc(CSC2CCN(CC=Cc3ccccc3)CC2)c(OC)c1OC` [Example 1, 4-(2,3,4-trimethoxybenzylthio)-1-cinnamylpiperidine], the IC50 (type L calcium channels) was 1300 nM, the IC50 (Beta adrenergic β) was 2000 nM and the Contractility delta % (beagle dogs; 10 minutes after treatment, 1 mg/kg i.v., solvent -44.5) was -24.3%. The “Epicardial ST delta mV” value (beagle dogs; 10 minutes after treatment, 1 mg/kg, solvent +4) was “+2 mV”, the “Epicardial ST delta mV” value (beagle dogs; Stenosis (before treatment), 1 mg/kg group, solvent +4.5) was “+4.5 mV” and the Contractility delta % (beagle dogs; Stenosis (before treatment), 1 mg/kg i.v. group, solvent -45.8) was -45%. For the same compound, the “anti-ischaemic effect (in words)” value (beagle dogs; intravenous, Protocols 1 and 2) was “markedly reduces both preventively and curatively the electrocardiographic modifications and the modifications of myocardial contractility induced by ischaemia”.
